Experimental data reported in ChEMBL document CHEMBL5331129, “Discovery of NAFLD-Improving Agents by Promoting the Degradation of Keap1” (J Med Chem, 2023).
The source made the active and inactive calls.

Legend:
[1] = molecular target: Protein cereblon/Kelch-like ECH-associated protein 1 (Mus musculus, UniProt Q8C7D2+Q9Z2X8); assay: PROTAC activity at CRBN/Keap1 in mouse AML12 cells assessed as reduction of Keap1 protein incubated for 24 hrs by Western blotting analysis; format: cell-based
[2] = molecular target: T1, Protein cereblon/Kelch-like ECH-associated protein 1 (Mus musculus) (UniProt Q9Z2X8+Q8C7D2); assay: PROTAC activity at CRBN/Keap1 in mouse AML12 cells assessed as degradation of Keap1 protein at 0.5 to 2 uM incubated for 24 hrs by Western blotting analysis; format: cell-based; settings: dose 0.5-2 µM
T1 sequence (Q8C7D2 whole entry, looked up): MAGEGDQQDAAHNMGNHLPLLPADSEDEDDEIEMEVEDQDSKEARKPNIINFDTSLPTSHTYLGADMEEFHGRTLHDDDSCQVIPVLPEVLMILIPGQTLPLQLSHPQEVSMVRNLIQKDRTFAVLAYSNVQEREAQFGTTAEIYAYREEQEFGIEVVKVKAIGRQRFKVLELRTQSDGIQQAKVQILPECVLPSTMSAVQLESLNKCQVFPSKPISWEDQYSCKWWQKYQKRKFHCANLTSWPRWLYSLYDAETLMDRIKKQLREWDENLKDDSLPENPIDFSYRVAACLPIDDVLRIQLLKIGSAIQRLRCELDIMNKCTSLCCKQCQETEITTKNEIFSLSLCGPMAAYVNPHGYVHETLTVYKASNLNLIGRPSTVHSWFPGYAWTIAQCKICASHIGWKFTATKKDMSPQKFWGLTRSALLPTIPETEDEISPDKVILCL
T1 sequence (Q9Z2X8 whole entry, looked up): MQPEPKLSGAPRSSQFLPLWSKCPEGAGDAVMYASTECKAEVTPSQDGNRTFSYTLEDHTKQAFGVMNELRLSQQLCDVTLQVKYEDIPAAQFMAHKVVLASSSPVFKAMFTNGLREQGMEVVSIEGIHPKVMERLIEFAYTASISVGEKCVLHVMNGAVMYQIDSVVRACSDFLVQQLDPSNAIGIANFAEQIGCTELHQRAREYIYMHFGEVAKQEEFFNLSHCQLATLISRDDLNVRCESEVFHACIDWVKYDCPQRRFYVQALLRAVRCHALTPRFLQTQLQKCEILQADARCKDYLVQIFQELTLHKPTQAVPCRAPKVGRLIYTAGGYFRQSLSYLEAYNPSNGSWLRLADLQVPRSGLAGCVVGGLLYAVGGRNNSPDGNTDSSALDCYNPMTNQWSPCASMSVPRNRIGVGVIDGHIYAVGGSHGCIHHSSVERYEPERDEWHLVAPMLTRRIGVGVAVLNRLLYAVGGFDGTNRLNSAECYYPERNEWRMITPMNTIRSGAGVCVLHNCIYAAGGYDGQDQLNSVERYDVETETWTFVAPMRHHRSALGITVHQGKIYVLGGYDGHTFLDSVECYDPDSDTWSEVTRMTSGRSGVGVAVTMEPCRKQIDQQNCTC

[3] = molecular target: T1, Protein cereblon/Kelch-like ECH-associated protein 1 (Mus musculus); assay: PROTAC activity at CRBN/Keap1 in mouse AML12 cells assessed as degradation of Keap1 protein level at 1 uM preincubated with MLN-4924 followed by compound addition and incubated for 24 hrs by Western blotting analysis; format: cell-based
AML12 [4] = assay: Cytotoxicity against mouse AML12 cells at 0.5 uM incubated for 24 hrs by MTT assay; format: toxicity, cell-based; settings: aml12, 24 h
AML12 [5] = assay: Antioxidant activity against free fatty acid induced oxidative stress in mouse AML12 cells assessed as downregulation of Keap1 protein expression level at 0.125 to 0.5 uM incubated for 24 hrs by immunofluorescence staining analysis; format: functional, cell-based; settings: dose 0.125-0.5 µM
AML12 [6] = assay: Antioxidant activity against free fatty acid induced oxidative stress in mouse AML12 cells assessed as downregulation of Keap1 protein expression level at 0.125 to 0.5 uM incubated for 24 hrs by immunoblot analysis; format: functional, cell-based; settings: dose 0.125-0.5 µM
AML12 [7] = assay: Antioxidant activity against free fatty acid induced oxidative stress in mouse AML12 cells assessed as upregulation of Nrf2 protein expression level at 0.125 to 0.5 uM incubated for 24 hrs by immunoblot analysis; format: functional, cell-based; settings: dose 0.125-0.5 µM
AML12 [8] = assay: Antioxidant activity against free fatty acid induced oxidative stress in mouse AML12 cells assessed as upregulation of NQO1 protein expression level at 0.125 to 0.5 uM incubated for 24 hrs by immunoblot analysis; format: functional, cell-based; settings: dose 0.125-0.5 µM
AML12 [9] = assay: Antioxidant activity against free fatty acid induced oxidative stress in mouse AML12 cells assessed as decrease in ROS level at 0.125 to 0.5 uM incubated for 24 hrs; format: functional, cell-based; settings: dose 0.125-0.5 µM
AML12 [10] = assay: Antioxidant activity against free fatty acid induced oxidative stress in mouse AML12 cells assessed as increase in GSH level at 0.125 to 0.5 uM; format: functional, cell-based; settings: dose 0.125-0.5 µM
Mus musculus [11] = assay: Antioxidant activity against MCD diet-induced oxidative stress in C57Bl/6 mouse model of NAFLD assessed as downregulation of liver Keap1 protein expression level at 0.5 to 2 mg/kg,ip administrated for 4 weeks by immunoblot analysis; format: functional, organism-based; settings: dose 0.5-2 mg/kg
Mus musculus [12] = assay: Antioxidant activity against MCD diet-induced oxidative stress in C57Bl/6 mouse model of NAFLD assessed as upregulation of liver HO-1 protein expression level at 0.5 to 2 mg/kg,ip administrated for 4 weeks by immunohistochemical staining assay; format: functional, organism-based; settings: dose 0.5-2 mg/kg
Mus musculus [13] = assay: Antioxidant activity against MCD diet-induced oxidative stress in C57Bl/6 mouse model of NAFLD assessed as increase in SOD level in liver at 0.5 to 2 mg/kg,ip administrated for 4 weeks; format: functional, organism-based; settings: dose 0.5-2 mg/kg
Mus musculus [14] = assay: Antioxidant activity against MCD diet-induced oxidative stress in C57Bl/6 mouse model of NAFLD assessed as decrease in liver ROS level at 0.5 to 2 mg/kg,ip administrated for 4 weeks by immunostaining analysis; format: functional, organism-based; settings: dose 0.5-2 mg/kg
AML12 [15] = assay: Antioxidant activity against free fatty acid induced oxidative stress in mouse AML12 cells assessed as reduction in intracellular lipid accumulation at 0.5 uM incubated for 24 hrs by Oil Red O staining based microscopic analysis; format: functional, cell-based
AML12 [16] = assay: Antioxidant activity against free fatty acid induced oxidative stress in mouse AML12 cells assessed as reduction in triglyceride level at 0.5 uM incubated for 24 hrs; format: functional, cell-based
AML12 [17] = assay: Antioxidant activity against free fatty acid induced oxidative stress in mouse AML12 cells assessed as reduction in total cholesterol level at 0.5 uM incubated for 24 hrs; format: functional, cell-based
[18] = Toxicity in MCD diet-induced oxidative stress in C57Bl/6 mouse model of NAFLD assessed as body weight loss at 2 mg/kg,ip administrated for 4 weeks […]; format: organism-based; settings: in vivo, 672 h
Mus musculus [19] = assay: Antioxidant activity against MCD diet-induced oxidative stress in C57Bl/6 mouse model of NAFLD assessed as reduction of serum LDL-C level at ip administrated for 4 weeks; format: functional, organism-based
Mus musculus [20] = assay: Antioxidant activity against MCD diet-induced oxidative stress in C57Bl/6 mouse model of NAFLD assessed as reduction of serum TG level at 0.5 to 2 mg/kg,ip administrated for 4 weeks; format: functional, organism-based; settings: dose 0.5-2 mg/kg
Mus musculus [21] = assay: Antioxidant activity against MCD diet-induced oxidative stress in C57Bl/6 mouse model of NAFLD assessed as reduction of serum TC level at 0.5 to 2 mg/kg,ip administrated for 4 weeks; format: functional, organism-based; settings: dose 0.5-2 mg/kg
Mus musculus [22] = assay: Antioxidant activity against MCD diet-induced oxidative stress in C57Bl/6 mouse model of NAFLD assessed as reduction of serum ALT level at 0.5 to 2 mg/kg,ip administrated for 4 weeks; format: functional, organism-based; settings: dose 0.5-2 mg/kg
Mus musculus [23] = assay: Antioxidant activity against MCD diet-induced oxidative stress in C57Bl/6 mouse model of NAFLD assessed as reduction of serum AST level at 0.5 to 2 mg/kg,ip administrated for 4 weeks; format: functional, organism-based; settings: dose 0.5-2 mg/kg
Mus musculus [24] = assay: Antioxidant activity against MCD diet-induced oxidative stress in C57Bl/6 mouse model of NAFLD assessed as reduction of liver macrophage infiltration at 0.5 to 2 mg/kg,ip administrated for 4 weeks by immunostaining assay; format: functional, organism-based; settings: dose 0.5-2 mg/kg
Mus musculus [25] = assay: Antioxidant activity against MCD diet-induced oxidative stress in C57Bl/6 mouse model of NAFLD assessed as reduction of hepatic steatosis in liver at ip administrated for 4 weeks by hematoxylin and eosin staining based assay; format: functional, organism-based
Mus musculus [26] = assay: Antioxidant activity against MCD diet-induced oxidative stress in C57Bl/6 mouse model of NAFLD assessed as reduction of morphological change in liver at ip administrated for 4 weeks by hematoxylin and eosin staining based assay; format: functional, organism-based
[27] = Acute toxicity in zebrafish at < 5 uM observed at 48 hrs post fertilization; parameters: species or system Danio rerio; settings: in vivo
[28] = Cardiotoxicity in zebrafish at 10 uM observed at 48 hrs post fertilization; format: toxicity, Danio rerio
[29] = Cardiotoxicity in zebrafish at 10 uM observed at 72 hrs post fertilization; format: toxicity, Danio rerio
[30] = Acute toxicity in C57BL/6 mouse assessed as histopathological change in liver at 20 mg/kg,ip qd administrated for 3 consecutive days and measured on day 4 by hematoxylin and eosin staining based assay; format: organism-based; settings: in vivo
[31] = Acute toxicity in C57BL/6 mouse assessed as histopathological change in spleen at 20 mg/kg,ip qd administrated for 3 consecutive days and measured on day 4 by hematoxylin and eosin staining based assay; format: organism-based; settings: in vivo
[32] = Toxicity in C57BL/6 mouse assessed as histopathological change in heart at 2 mg/kg,ip qd administrated for 4 weeks by hematoxylin and eosin staining based assay; format: organism-based; settings: in vivo, 672 h
[33] = Toxicity in C57BL/6 mouse assessed as histopathological change in liver at 2 mg/kg,ip qd administrated for 4 weeks by hematoxylin and eosin staining based assay; format: organism-based; settings: in vivo, 672 h
[34] = Toxicity in C57BL/6 mouse assessed as histopathological change in spleen at 2 mg/kg,ip qd administrated for 4 weeks by hematoxylin and eosin staining based assay; format: organism-based; settings: in vivo, 672 h

Chain of Protein cereblon/Kelch-like ECH-associated protein 1 (Q9Z2X8 whole entry): as the sequence (Q9Z2X8 whole entry, looked up) above
Chain of Protein cereblon/Kelch-like ECH-associated protein 1 (Q8C7D2 whole entry): as the sequence (Q8C7D2 whole entry, looked up) above

CC1(C)CC[C@]2(C(=O)NCCCCCNc3cccc4c3C(=O)N(C3CCC(=O)NC3=O)C4=O)CC[C@]3(C)[C@H](C(=O)C=C4C5(C)C=C(C#N)C(=O)C(C)(C)[C@@H]5CC[C@]43C)[C@@H]2C1 (single isomer, unassigned)
active: Activity [2] | Activity (AML12 [5]) | Activity (AML12 [6]) | Activity (AML12 [7]) | Activity (AML12 [8]) | Activity (AML12 [9]) | Activity (AML12 [10]) | Activity (Mus musculus [11]) Dose-Dependent Effect | Activity (Mus musculus [12]) Dose-Dependent Effect | Activity (Mus musculus [13]) | Activity (Mus musculus [14]) | Activity (AML12 [15]) | Activity (AML12 [16]) | Activity (Mus musculus [19]) Dose-Dependent Effect | Activity (Mus musculus [20]) | Activity (Mus musculus [21]) | Activity (Mus musculus [22]) | Activity (Mus musculus [23]) | Activity (Mus musculus [24]) | Activity (Mus musculus [25]) Dose-Dependent Effect | Activity (Mus musculus [26]) Dose-Dependent Effect
Non-Toxic: Activity (AML12 [4]) | Activity [18] | Activity [27] | Activity [28] | Activity [29] | Activity [30] | Activity [31] | Activity [32] | Activity [33] | Activity [34]
18.2 µM: IC50 [1]
inactive: Activity [3] | Activity (AML12 [17])
